Where two headings read alike, the source gives them in different places.
Tests used:
[1] = target: human GluN1/GluN2B (Homo sapiens (Human), UniProt Q05586+Q13224); assay: Two electrode voltage-clamp recordings from Xenopus laevis oocytes, GluN2B potency and pH dependence; assay type: cell-based; conditions: for pH Boost: ratio of IC50 at pH 7.6 to IC50 at pH 6.9
Description: Two Electrode Voltage-Clamp Recordings from Xenopus laevis Oocytes
Stage V-VI Xenopus laevis unfertilized oocytes were purchased from Ecocyte (Austin, Texas) and injected with 5 ng of GluN1 and 10 ng of GluN2B cRNAs. The cDNAs for human GluN1 and GluN2B, encoding NCBI reference sequences NM_007327.3 and NM_000834.3, respectively, were linearized and cRNAs made as previously described (Traynelis et al., J Neurosci, 1998, 18(16):6163-75). After injection, the oocytes were incubated in Barth's culture solution (88 mM NaCl, 1 mM KCl, 2.4 mM NaHCO3, 10 mM HEPES, 0.82 mM MgSO4, 0.33 mM Ca(NO3)2, 0.41 mM CaCl2), 10 U/mL PenStrep, and 0.1 mg/mL gentamycin, pH 7.4) at 18° C. Two electrode voltage-clamp (TEVC) recordings were made at 22-23° C., 2-7 days after the injection, using Warner OC725C amplifiers (VHOLD=−40 mV). Briefly, the oocytes were perfused in a recording solution (90 mM NaCl, 1 mM KCl, 10 mM HEPES, 0.01 mM EDTA, and 0.5 mM BaCl2) adjusted to either pH 7.6 or 6.9 by addition of NaOH or HCl, respectively (pH 6.9 solutions were prepared by addition of HCl to pH 7.6 solutions to maintain an equal concentration of Na^+ ions in both solutions). Concentration-response curves of the compounds were obtained by application of increasing concentrations of each individual compound until steady state conditions were obtained, in the presence of saturating agonist concentrations (i.e., 100 μM glutamate and 30 μM glycine). In general, oocyte recordings were made from 4-10 oocytes per experiment (i.e., oocyte injection cycle) from ≥two experiments. The concentration-response relationship for each oocyte was fit by equation (1),
Percent Response=(100−minimum)/(1+([concentration]/IC50)^nH)+minimum (1)
where minimum is the residual response in saturating concentration of each individual compound (constrained to be ≥0), and IC50 is the concentration of compound that causes half-maximal inhibition, and nH is the Hill slope.

[2] = test system: horizontal locomotor activity of mice; assay: Locomotor activity; assay type: in vivo, mouse; conditions: 0.3 mg/kg IP, two hours
Excerpt: (§1) The locomotor and rotarod studies were approved by the Georgia State University IACUC, an AAALAC accredited institution under the supervision of licensed veterinarians. Mice were group housed, provided nestlets and shelters with access to food pellets and water ad libitum under a 12-hour light/dark cycle.
For locomotor activity measurements, mice (C57B16, >90 days old, Jackson Labs) were placed in a closed (with light on) activity monitoring box for one hour to habituate prior to drug testing. After one hour, animals were removed and injected (IP) with drug and then returned to the activity monitoring box and total locomotor activity was monitored for two hours. The total number of light beam breaks in the cage (horizontal) was determined by a computer and results averaged for each drug. Results were analyzed by ANOVA and Dunnett's post hoc test to compare horizontal activity of drug-treated groups to vehicle controls. Male animals were used for these behavioral tests given only male mice were used in the MCAO transient ischemia studies.

[3] = test system: motor coordination of mice on rotarod; assay: Rotarod performance; assay type: in vivo, mouse; conditions: 30 mg/kg IP, all four trials
Description: as §1
For rotarod experiments, male C57BL/6 mice (>90 days old) were tested using a Rotamax 4/8 rotarod (Columbus Instruments, Columbus, Ohio). Prior to training and testing, the mice were brought to the testing room and allowed to acclimate for two hours prior to any further handling. Mice were placed on a rotating rod (5 rpm), 3.8 cm in diameter and 8 cm wide, elevated 30 cm from the floor of a chamber. After 10 sec of rotation at a fixed velocity, the rotation was slowly accelerated from 5 to 35 rpm over a 5 min period. The duration of time that the mouse could stay on the rotarod, without hanging on for a full rotation or without falling, was recorded. Mice were trained 4 times at 25 min inter-trial intervals on each day for two days. On day three, mice were randomly assigned to treatment groups and administered test drug or vehicle (via IP administration) 25 min prior to testing (4 trials with inter-trial interval of 25 min). Individuals performing the experiment were blinded to the identity of each treatment group. Results were analyzed by ANOVA and Dunnett's post hoc test to compare duration of time on the rotating rod of drug-treated groups to the vehicle controls.

[4] = pH 6.9, read-out: IC50 (μM) pH 6.9
[5] = pH 7.6, read-out: IC50 (μM) pH 7.6

Chain of human GluN1/GluN2B (Q13224 27-1484, other chains not shown): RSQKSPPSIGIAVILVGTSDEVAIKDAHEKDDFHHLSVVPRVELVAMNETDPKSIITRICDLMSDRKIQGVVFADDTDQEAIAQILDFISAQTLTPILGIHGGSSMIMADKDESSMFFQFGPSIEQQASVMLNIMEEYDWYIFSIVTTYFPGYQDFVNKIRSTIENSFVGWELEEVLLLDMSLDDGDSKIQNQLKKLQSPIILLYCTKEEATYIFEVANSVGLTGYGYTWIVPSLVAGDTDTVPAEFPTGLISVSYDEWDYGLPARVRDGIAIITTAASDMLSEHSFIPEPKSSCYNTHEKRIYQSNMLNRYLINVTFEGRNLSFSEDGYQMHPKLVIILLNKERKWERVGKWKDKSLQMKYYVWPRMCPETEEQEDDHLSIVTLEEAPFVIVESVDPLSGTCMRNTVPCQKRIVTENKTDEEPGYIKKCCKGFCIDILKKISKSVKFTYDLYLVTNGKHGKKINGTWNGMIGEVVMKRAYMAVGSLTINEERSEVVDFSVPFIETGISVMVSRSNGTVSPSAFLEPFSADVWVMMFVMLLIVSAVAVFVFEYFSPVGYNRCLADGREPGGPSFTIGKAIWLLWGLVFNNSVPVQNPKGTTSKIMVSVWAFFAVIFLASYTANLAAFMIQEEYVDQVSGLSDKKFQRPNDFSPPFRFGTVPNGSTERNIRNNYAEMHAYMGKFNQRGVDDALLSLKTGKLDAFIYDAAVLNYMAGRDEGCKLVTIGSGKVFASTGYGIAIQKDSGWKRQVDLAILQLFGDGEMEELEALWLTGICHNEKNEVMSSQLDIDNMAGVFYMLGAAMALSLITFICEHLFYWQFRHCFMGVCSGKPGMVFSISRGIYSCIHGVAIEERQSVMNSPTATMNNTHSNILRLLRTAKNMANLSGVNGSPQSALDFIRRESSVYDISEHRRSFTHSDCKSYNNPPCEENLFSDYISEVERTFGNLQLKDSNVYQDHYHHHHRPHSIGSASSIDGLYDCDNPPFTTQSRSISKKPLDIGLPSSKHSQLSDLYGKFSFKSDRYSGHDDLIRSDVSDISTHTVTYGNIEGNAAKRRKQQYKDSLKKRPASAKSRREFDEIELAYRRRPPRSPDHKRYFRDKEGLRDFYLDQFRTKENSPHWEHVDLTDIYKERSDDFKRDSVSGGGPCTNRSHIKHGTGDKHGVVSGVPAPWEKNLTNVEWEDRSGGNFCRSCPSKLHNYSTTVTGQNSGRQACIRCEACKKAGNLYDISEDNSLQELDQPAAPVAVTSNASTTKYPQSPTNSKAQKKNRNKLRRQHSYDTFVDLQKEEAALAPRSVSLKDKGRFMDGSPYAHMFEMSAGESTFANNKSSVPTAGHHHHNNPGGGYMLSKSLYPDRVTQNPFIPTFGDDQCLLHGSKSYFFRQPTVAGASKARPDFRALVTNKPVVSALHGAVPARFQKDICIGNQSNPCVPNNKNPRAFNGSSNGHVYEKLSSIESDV

| Structure (SMILES) | IC50 [1, 4] [µM] | IC50 [1, 5] [µM] | pH Boost [1] | potency against GluN2B compared to corresponding S enantiomer [1] | horizontal activity compared to the vehicle control [2] | latency-to-fall score [3] | IC50 ([1]; pH 6.9, read-out: IC50 value at pH 6.9) [µM] | IC50 ([1]; pH 7.6, read-out: IC50 value at pH 7.6) [µM] |
| --- | --- | --- | --- | --- | --- | --- | --- | --- |
| CCCc1ccc(N2CCN(C[C@H](O)COc3ccc(NC(N)=O)cc3)CC2)cc1 [Compound 10215] | 0.13 | 1.3 | 10.0 | – | – | – | – | – |
| Cc1ccc(N2CCN(C[C@@H](O)COc3ccc(O)cc3)CC2)cc1 [Compound 10244] | 0.047 | 0.305 | 6.5 | – | – | – | – | – |
| Oc1ccc(OC[C@@H](O)CN2CCN(c3ccccc3)CC2)cc1 [Compound 10039] | 0.217 | 0.476 | 2.2 | – | – | – | – | – |
| CS(=O)(=O)Nc1ccc(OC[C@H](O)CN2CCN(c3ccc(F)c(F)c3)CC2)cc1 [Compound 10233] | 0.047 | 0.294 | 6.3 | lower potency | – | – | – | – |
| Oc1ccc(OC[C@@H](O)CN2CCN(c3ccc(F)c(F)c3)CC2)cc1 [Compound 10030] | 0.087 | 0.978 | 11.2 | – | – | – | – | – |
| CCCCc1ccc(N2CCN(C[C@H](O)COc3ccc(O)cc3)CC2)cc1 [Compound 10235] | 0.398 | 4.38 | 11.0 | – | – | – | – | – |
| CCCc1ccc(N2CCN(C[C@@H](O)COc3ccc(NC(N)=O)cc3)CC2)cc1 [Compound 10224] | 0.034 | 0.171 | 5.0 | – | – | – | – | – |
| CCc1ccc(N2CCN(C[C@@H](O)COc3ccc(O)cc3)CC2)cc1 [Compound 10245] | 0.025 | 0.385 | 15.4 | – | – | – | – | – |
| NC(=O)Nc1ccc(OC[C@H](O)CN2CCN(c3ccc(F)cc3)CC2)cc1 [Compound 10225] | 0.097 | 0.527 | 5.4 | – | – | – | – | – |
| CCc1ccc(N2CCN(C[C@H](O)COc3ccc(O)cc3)CC2)cc1 [Compound 10171] | 0.046 | 0.316 | 6.9 | – | – | – | – | – |
| C[C@]12N[C@H](Cc3ccccc31)c1ccccc12 [MK-801] | – | – | – | – | significant increase | – | – | – |
| CCCCc1ccc(N2CCN(C[C@@H](O)COc3ccc(O)cc3)CC2)cc1 [Compound 10249] | 0.549 | 3.42 | 6.2 | lower potency | – | – | – | – |
| Oc1ccc(OC[C@H](O)CN2CCN(c3ccccc3)CC2)cc1 [Compound 10243] | 0.071 | 0.574 | 8.1 | – | – | – | – | – |
| NC(=O)Nc1ccc(OC[C@H](O)CN2CCN(c3ccc(C(F)(F)F)cc3)CC2)cc1 [Compound 10272] | 0.022 | 0.128 | 5.8 | – | – | – | – | – |
| CC(C(O)c1ccc(O)cc1)N1CCC(Cc2ccccc2)CC1 (stereo not shown) [ifenprodil, reference compound] | – | – | – | – | – | significant reduction | – | – |
| CCc1ccc(N2CCN(C[C@H](O)COc3ccc(NC(N)=O)cc3)CC2)cc1 [Compound 10189] | 0.094 | 1 | 10.6 | – | – | – | – | – |

| Structure (SMILES) | IC50 [1, 4] [µM] | IC50 [1, 5] [µM] | pH Boost [1] | potency against GluN2B compared to corresponding S enantiomer [1] | horizontal activity compared to the vehicle control [2] | latency-to-fall score [3] | IC50 ([1]; pH 6.9, read-out: IC50 value at pH 6.9) [µM] | IC50 ([1]; pH 7.6, read-out: IC50 value at pH 7.6) [µM] |
| --- | --- | --- | --- | --- | --- | --- | --- | --- |
| O=C1Cc2cc(OC[C@H](O)CN3CCN(c4ccc(Cl)cc4)CC3)ccc2N1 [Compound 10228] | 0.121 | 0.592 | 4.9 | lower potency | – | – | – | – |
| CCc1ccc(N2CCN(C[C@@H](O)COc3ccc(NC(N)=O)cc3)CC2)cc1 [Compound 10222] | 0.052 | 0.183 | 3.5 | – | – | – | – | – |
| O=C1CCc2cc(OC[C@@H](O)CN3CCN(c4ccc(C(F)(F)F)cc4)CC3)ccc2N1 [NP10309] | 0.111 | 0.717 | 6.5 | – | – | – | 0.111 | 0.717 |
| CS(=O)(=O)Nc1ccc(OC[C@@H](O)CN2CCN(c3ccc(F)c(F)c3)CC2)cc1 [Compound 93-108] | 0.031 | 0.558 | 18.0 | – | – | – | – | – |
| NC(=O)Nc1ccc(OC[C@@H](O)CN2CCN(c3ccc(Cl)cc3)CC2)cc1 [Compound 10075] | 0.046 | 0.452 | 9.8 | – | – | – | – | – |
| NC(=O)Nc1ccc(OC[C@H](O)CN2CCN(c3ccc(Cl)cc3)CC2)cc1 [Compound 10165] | 0.019 | 0.06 | 3.2 | – | – | – | – | – |
| Oc1ccc(OC[C@H](O)CN2CCN(c3ccc(F)c(F)c3)CC2)cc1 [Compound 10052] | 0.05 | 0.272 | 5.4 | – | – | – | – | – |
| NC(=O)Nc1ccc(OC[C@H](O)CN2CCN(c3ccc(Cl)c(Cl)c3)CC2)cc1 [Compound 10166] | 0.03 | 0.132 | 4.4 | – | – | – | – | – |
| CC(C)c1ccc(N2CCN(C[C@H](O)COc3ccc(O)cc3)CC2)cc1 [Compound 10082] | 0.356 | 1.37 | 3.8 | – | – | – | – | – |
| CC(C)c1ccc(N2CCN(C[C@@H](O)COc3ccc(O)cc3)CC2)cc1 [Compound 10247] | 0.144 | 0.675 | 4.7 | – | – | – | – | – |
| NC(=O)Nc1ccc(OC[C@@H](O)CN2CCN(c3ccc(F)cc3)CC2)cc1 [Compound 10214] | 0.221 | 2.18 | 9.9 | – | – | – | – | – |
| NC(=O)Nc1ccc(OC[C@@H](O)CN2CCN(c3ccc(Cl)c(Cl)c3)CC2)cc1 [Compound 10131] | 0.103 | 0.947 | 9.2 | – | – | – | – | – |
| Cc1ccc(N2CCN(C[C@H](O)COc3ccc(O)cc3)CC2)cc1 [Compound 10040] | 0.074 | 0.26 | 3.5 | – | – | – | – | – |
| O=C1Cc2cc(OC[C@@H](O)CN3CCN(c4ccc(Cl)cc4)CC3)ccc2N1 [Compound 10146] | 0.029 | 0.37 | 12.8 | – | – | – | – | – |
| NC(=O)Nc1ccc(OC[C@@H](O)CN2CCN(c3ccc(C(F)(F)F)cc3)CC2)cc1 [Compound 10294] | 0.03 | 0.209 | 7.0 | – | – | – | – | – |

— patent US20240360091A1, “GLUN2B-SUBUNIT SELECTIVE ANTAGONISTS OF THE N-METHYL-D-ASPARTATE RECEPTORS WITH ENHANCED POTENCY AT ACIDIC PH” (Emory University, priority 2021, published 2024)
